Test results reported in US20160271118A1, “PHARMACEUTICAL COMPOSITIONS COMPRISING ANTIBACTERIAL AGENTS” (priority 2013, published 2016).
Read-outs that look alike come from different tables or passages of the source.

Legend:
Format in all cases: cell-based, Acinetobacter baumannii
[1] = test system: A. baumannii; assay: Broth microdilution MIC (CLSI), A. baumannii strains overall; settings: used alone; for MIC: Acinetobacter baumannii, A. baumannii strains producing OXA 23, OXA 24 or OXA 27
Protocol: (§1) The broth microdilution Minimum Inhibitory Concentration (MIC) studies were conducted as per the CLSI recommendations (Clinical and Laboratory Standards Institute (CLSI), Performance Standards for Antimicrobial Susceptibility Testing, 20th Informational Supplement, M 100-S20, Volume 30, No. 1, 2010). The media utilized was Brain Heart Infusion broth (BD, USA). In brief, 50 mcl of serial double dilutions of the antibacterial agents in Brain Heart Infusion media were dispensed in 96 well microtiter plate. 50 mcl of culture suspension was added to each pre dispensed drug dilution such that the final bacterial inoculum density was 2-8×10^5 CFU/ml. The plates were incubated for 20-24 hours at 35±2° C. and observed visually for growth or no growth based on the turbidity. Three specific compounds generally represented by a general Formula (I) were used and are as follows: • 1. (2S,5R)-7-oxo-N-[(3S)-pyrrolidin-3-yloxy]-6-(sulfooxy)-1,6-diazabicyclo[3.2.1]octane-2-carboxamide (Compound A),
(§2) The results of antibacterial activity of various compounds when used alone and in combinations according to the inventions are shown in Tables 1 and 2 respectively. The strains of A. baumannii used for the study were those which produced carbapenem hydrolyzing class D beta-lactamase enzymes (OXA 23, OXA 24 or OXA 27). […] In general, the MIC values of Sulbactam and Cefepime reduced when these were combined with Compounds A, B and C.

[2] = test system: A. baumannii NCTC 13301; assay: Broth microdilution MIC (CLSI), A. baumannii NCTC 13301; settings: for MIC: Acinetobacter baumannii, NCTC13301; for MIC of Sulbactam in combination of compound: compound at 4 mcg/ml; for MIC of Cefepime in combination of compound: compound at 8 mcg/ml
Protocol: as §1, §2

[3] = test system: A. baumannii NCTC 13304; assay: Broth microdilution MIC (CLSI), A. baumannii NCTC 13304; settings: for MIC: Acinetobacter baumannii, NCTC13304; for MIC of Sulbactam in combination of compound: compound at 4 mcg/ml; for MIC of Cefepime in combination of compound: compound at 8 mcg/ml
Protocol: as §1, §2

[4] = test system: A. baumannii NCTC 13302; assay: Broth microdilution MIC (CLSI), A. baumannii NCTC 13302; settings: for MIC: Acinetobacter baumannii, NCTC13302; for MIC of Sulbactam in combination of compound: compound at 4 mcg/ml; for MIC of Cefepime in combination of compound: compound at 8 mcg/ml
Protocol: as §1, §2

[5] = compound alone, A. baumannii NCTC 13301 (OXA 51, OXA 23), read-out: MIC
[6] = compound alone, A. baumannii NCTC 13304 (OXA 51, OXA 27), read-out: MIC
[7] = compound alone, A. baumannii NCTC 13302 (OXA 51, OXA 24), read-out: MIC
[8] = A. baumannii NCTC 13301 (OXA 51, OXA 23)
[9] = A. baumannii NCTC 13304 (OXA 51, OXA 27)
[10] = A. baumannii NCTC 13302 (OXA 51, OXA 24)

Row | SMILES | antibacterial activity against A. baumannii [1] | MIC [2, 5] [µg/mL] | MIC [3, 6] [µg/mL] | MIC [4, 7] [µg/mL] | MIC [1] [µg/mL] | MIC of Sulbactam in combination of compound [2, 8] [µg/mL] | MIC of Cefepime in combination of compound [2, 8] [µg/mL] | MIC of Sulbactam in combination of compound [3, 9] [µg/mL] | MIC of Cefepime in combination of compound [3, 9] [µg/mL] | MIC of Sulbactam in combination of compound [4, 10] [µg/mL] | MIC of Cefepime in combination of compound [4, 10] [µg/mL] | MIC [2] [µg/mL] | MIC [3] [µg/mL] | MIC [4] [µg/mL]
1 | C[C@@H](O)[C@H]1C(=O)N2C(C(=O)O)=C(S[C@@H]3CN[C@H](C(=O)N(C)C)C3)[C@H](C)[C@H]12 [Meropenem, reference compound] | poor antibacterial activity | 32 | > 32 | > 32 |  |  |  |  |  |  |  |  |  | 
2 | O=C(NO[C@H]1CCNC1)[C@@H]1CC[C@@H]2CN1C(=O)N2OS(=O)(=O)O [Compound A, (2S,5R)-7-oxo-N-[(3S)-pyrrolidin-3-yloxy]-6-(sulfooxy)-1,6-diazabicyclo[3.2.1]octane-2-carboxamide] |  | > 128 | > 128 | > 128 | > 128 | 4 | 16 | 8 | 16 | 8 | 16 |  |  | 
3 | CO/N=C(\C(=O)N[C@@H]1C(=O)N2C(C(=O)[O-])=C(C[N+]3(C)CCCC3)CS[C@H]12)c1csc(N)n1 [Cefepime, reference compound] | poor antibacterial activity | > 32 | 32 | 32 |  |  |  |  |  |  |  |  |  | 
4 | O=C(NOC[C@@H]1CCCN1)[C@@H]1CC[C@@H]2CN1C(=O)N2OS(=O)(=O)O [Compound B, (2S,5R)-7-oxo-N-[(2S)-pyrrolidin-2-ylmethyloxy]-6-(sulfooxy)-1,6-diazabicyclo[3.2.1]octane-2-carboxamide] |  | > 128 | > 128 | > 128 | > 128 | 4 | 16 | 4 | 8 | 4 | 16 |  |  | 
5 | O=C(NOC[C@@H]1CCCCN1)[C@@H]1CC[C@@H]2CN1C(=O)N2OS(=O)(=O)O [Compound C, (2S,5R)-7-oxo-N-[(2S)-piperidine-2-ylmethyloxy]-6-(sulfooxy)-1,6-diazabicyclo[3.2.1]octane-2-carboxamide] |  | > 128 | > 128 | > 128 | > 128 | 4 | 32 | 8 | 8 | 8 | 16 |  |  | 
6 | CC1(C)[C@H](C(=O)O)N2C(=O)C[C@H]2S1(=O)=O [Sulbactam, reference compound] | poor antibacterial activity |  |  |  |  |  |  |  |  |  |  | 8 | 32 | 16
